Reference: US10112926B2 (priority 2014, dated 2018)
pIC50: −log10 of the molar value. Where a name gives a salt, the structure may show the parent alone.

Tests used:
[1] = biological target: PI 4-kinase beta (Homo sapiens (Human), UniProt Q9UBF8); conditions: read-out: Assay D PI4Kβ IC50
[2] = biological target: Vps34 (Homo sapiens (Human), UniProt Q8NEB9); conditions: read-out: Assay C VPS34 IC50
Chain of Vps34 (Q8NEB9 whole entry): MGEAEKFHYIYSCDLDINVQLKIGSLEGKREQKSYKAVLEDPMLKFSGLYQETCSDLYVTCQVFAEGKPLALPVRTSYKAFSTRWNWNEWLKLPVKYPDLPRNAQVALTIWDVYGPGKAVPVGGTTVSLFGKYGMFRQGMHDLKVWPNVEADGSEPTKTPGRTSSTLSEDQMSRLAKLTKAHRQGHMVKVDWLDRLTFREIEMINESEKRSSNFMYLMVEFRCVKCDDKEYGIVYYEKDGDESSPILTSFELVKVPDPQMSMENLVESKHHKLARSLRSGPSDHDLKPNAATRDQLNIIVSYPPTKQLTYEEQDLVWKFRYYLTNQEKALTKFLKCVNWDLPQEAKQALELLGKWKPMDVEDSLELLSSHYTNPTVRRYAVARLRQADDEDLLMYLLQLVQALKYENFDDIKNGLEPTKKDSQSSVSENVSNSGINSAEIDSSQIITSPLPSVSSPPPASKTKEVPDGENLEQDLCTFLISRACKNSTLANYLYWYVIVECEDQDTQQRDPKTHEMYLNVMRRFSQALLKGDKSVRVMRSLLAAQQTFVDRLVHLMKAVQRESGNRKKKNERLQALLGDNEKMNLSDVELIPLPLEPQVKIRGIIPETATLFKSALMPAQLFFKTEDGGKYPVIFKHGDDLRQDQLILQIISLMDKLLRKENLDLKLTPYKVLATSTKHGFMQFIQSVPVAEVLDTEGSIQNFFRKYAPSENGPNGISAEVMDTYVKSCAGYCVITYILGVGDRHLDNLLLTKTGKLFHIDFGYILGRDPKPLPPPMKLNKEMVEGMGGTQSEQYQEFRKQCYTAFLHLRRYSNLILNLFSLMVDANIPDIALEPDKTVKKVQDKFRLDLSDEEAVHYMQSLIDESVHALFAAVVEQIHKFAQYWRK

Chain of PI 4-kinase beta (Q9UBF8 whole entry): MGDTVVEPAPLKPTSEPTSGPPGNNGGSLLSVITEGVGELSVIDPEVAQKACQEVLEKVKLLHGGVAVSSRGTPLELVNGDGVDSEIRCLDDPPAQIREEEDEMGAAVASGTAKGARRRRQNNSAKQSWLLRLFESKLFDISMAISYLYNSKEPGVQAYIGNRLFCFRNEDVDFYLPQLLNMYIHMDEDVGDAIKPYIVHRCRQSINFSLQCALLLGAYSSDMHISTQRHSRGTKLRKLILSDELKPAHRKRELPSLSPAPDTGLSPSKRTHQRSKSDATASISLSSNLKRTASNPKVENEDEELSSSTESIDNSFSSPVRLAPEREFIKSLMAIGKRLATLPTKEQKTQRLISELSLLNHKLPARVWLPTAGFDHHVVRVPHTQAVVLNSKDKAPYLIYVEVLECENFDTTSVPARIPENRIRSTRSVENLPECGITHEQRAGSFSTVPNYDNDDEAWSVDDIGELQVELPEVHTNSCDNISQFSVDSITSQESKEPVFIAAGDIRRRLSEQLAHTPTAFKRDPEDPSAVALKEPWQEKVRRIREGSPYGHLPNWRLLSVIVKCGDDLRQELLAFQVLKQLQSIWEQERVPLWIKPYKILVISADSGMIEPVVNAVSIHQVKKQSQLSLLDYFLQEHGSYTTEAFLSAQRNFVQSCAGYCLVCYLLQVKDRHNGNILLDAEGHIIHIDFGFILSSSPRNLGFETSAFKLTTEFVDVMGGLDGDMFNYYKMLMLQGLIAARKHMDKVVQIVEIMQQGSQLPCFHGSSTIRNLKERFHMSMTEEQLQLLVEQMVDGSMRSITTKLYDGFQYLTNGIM

SMILES	pIC50 [1]	pIC50 [2]
Cc1cc(-c2cc(-c3cc(S(=O)(=O)NC4CC4)ccc3C)cnc2N)on1 [Example 31, 3-(6-Amino-5-(3-methylisoxazol-5-yl)pyridin-3-yl)-N-cyclopropyl-4-methylbenzenesulfonamide]	5.90	< 5.00
Cc1ncc(-c2cc(-c3cc(S(N)(=O)=O)ccc3C)cnc2N)o1 [Example 33, 3-(6-Amino-5-(2-methyloxazol-5-yl)pyridin-3-yl)-4-methylbenzenesulfonamide]	5.35	5.41
Cc1ccc(S(=O)(=O)N[C@H]2CC[C@H](O)CC2)cc1-c1cnc(N)c(-c2cc(C(C)(C)C)no2)c1 [Example 35.2, trans-3-(6-Amino-5-(3-(tert-butyl)isoxazol-5-yl)pyridin-3-yl)-N-(−4-hydroxycyclohexyl)-4-methylbenzenesulfonamide hydrochloride]	6.20	< 5.00
Cc1ccc(S(=O)(=O)NCC(C)(C)O)cc1-c1cnc(N)c(-c2cc(C3CC3)no2)c1 [Example 35.3, 3-(6-Amino-5-(3-cyclopropylisoxazol-5-yl)pyridin-3-yl)-N-(2-hydroxy-2-methylpropyl)-4-methylbenzenesulfonamide hydrochloride]	5.89	< 5.00
Cc1cc(-c2cc(-c3cc(S(=O)(=O)N[C@@H]4CCNC(=O)C4)ccc3C)cnc2N)on1 [Example 37.4, (R)-3-(6-Amino-5-(3-methylisoxazol-5-yl)pyridin-3-yl)-4-methyl-N-(2-oxopiperidin-4-yl)benzenesulfonamide]	5.62	< 5.00
Cc1cc(-c2cc(-c3cc(S(=O)(=O)NCC4(CO)CCC4)ccc3C)cnc2N)on1 [Example 37.6, 3-(6-Amino-5-(3-methylisoxazol-5-yl)pyridin-3-yl)-N-((1-(hydroxymethyl)cyclobutyl)methyl)-4-methylbenzenesulfonamide]	5.66	< 5.00
Cc1noc(-c2cc(-c3cc(S(=O)(=O)NCC4(CO)CCOCC4)ccc3C)cnc2N)n1 [Example 37.10, 3-(6-Amino-5-(3-methyl-1,2,4-oxadiazol-5-yl)pyridin-3-yl)-N-((4-(hydroxymethyl)tetrahydro-2H-pyran-4-yl)methyl)-4-methylbenzenesulfonamide]	< 5.00	< 5.00
Cc1cc(-c2cc(-c3cc(S(=O)(=O)N4CC(CO)C4)ccc3C)cnc2N)on1 [Example 37.12, (1-((3-(6-Amino-5-(3-methylisoxazol-5-yl)pyridin-3-yl)-4-methylphenyl)sulfonyl)azetidin-3-yl)methanol]	5.47	< 5.00
Cc1noc(-c2cc(-c3cc(S(=O)(=O)NC4CC(F)(F)C4)ccc3C)cnc2N)n1 [Example 37.17, 3-(6-Amino-5-(3-methyl-1,2,4-oxadiazol-5-yl)pyridin-3-yl)-N-(3,3-difluorocyclobutyl)-4-methylbenzenesulfonamide]	5.07	< 5.00
Cc1noc(-c2cc(-c3cc(S(=O)(=O)NCC4(O)CC4)ccc3C)cnc2N)n1 [Example 37.19, 3-(6-Amino-5-(3-methyl-1,2,4-oxadiazol-5-yl)pyridin-3-yl)-N-((1-hydroxycyclopropyl)methyl)-4-methylbenzenesulfonamide]	5.07	< 5.00
Cc1noc(-c2cc(-c3cc(S(=O)(=O)NCCC4(O)CCCCC4)ccc3C)cnc2N)n1 [Example 37.31, 3-(6-Amino-5-(3-methyl-1,2,4-oxadiazol-5-yl)pyridin-3-yl)-N-(2-(1-hydroxycyclohexyl)ethyl)-4-methylbenzenesulfonamide]	5.21	< 5.00
Cc1cc(-c2cc(-c3cc(S(=O)(=O)NC[C@@H]4CCOC4)ccc3C)cnc2N)on1 [Example 38, (S)-3-(6-Amino-5-(3-methylisoxazol-5-yl)pyridin-3-yl)-4-methyl-N-((tetrahydrofuran-3-yl)methyl)benzenesulfonamide]	5.51	< 5.00
Cc1noc(-c2cc(-c3cc(S(=O)(=O)NCC4(O)CCOCC4)ccc3C)cnc2N)n1 [Example 51, 3-(6-Amino-5-(3-methyl-1,2,4-oxadiazol-5-yl)pyridin-3-yl)-N-((4-hydroxytetrahydro-2H-pyran-4-yl)methyl)-4-methylbenzenesulfonamide]	< 5.00	< 5.00
Cc1noc(-c2cc(-c3cc(S(=O)(=O)NCC4(CO)COC4)ccc3C)cnc2N)n1 [Example 52, 3-(6-Amino-5-(3-methyl-1,2,4-oxadiazol-5-yl)pyridin-3-yl)-N-((3-(hydroxymethyl)oxetan-3-yl)methyl)-4-methylbenzenesulfonamide]	< 5.00	< 5.00
Cc1noc(-c2cc(-c3cc(S(=O)(=O)NO[C@H]4C[C@H](O)C4)ccc3C)cnc2N)n1 [Example 55, trans-3-(6-Amino-5-(3-methyl-1,2,4-oxadiazol-5-yl)pyridin-3-yl)-N-(3-hydroxycyclobutoxy)-4-methylbenzenesulfonamide]	5.33	< 5.00
Cc1noc(-c2cc(-c3cc(S(=O)(=O)NCC4(O)COC4)ccc3C)cnc2N)n1 [Example 56, 3-(6-Amino-5-(3-methyl-1,2,4-oxadiazol-5-yl)pyridin-3-yl)-N-((3-hydroxyoxetan-3-yl)methyl)-4-methylbenzenesulfonamide]	< 5.00	< 5.00
Cc1nc(-c2cc(-c3cc(S(=O)(=O)NCC(C)(C)O)ccc3C)cnc2N)cs1 [Example 59, 3-(6-Amino-5-(2-methylthiazol-4-yl)pyridin-3-yl)-N-(2-hydroxy-2-methylpropyl)-4-methylbenzenesulfonamide]	< 5.00	< 5.00
Cc1ccc(S(=O)(=O)NCC(C)(C)O)cc1-c1cnc(N)c(-c2cn(C)nn2)c1 [Example 63, 3-(6-Amino-5-(1-methyl-1H-1,2,3-triazol-4-yl)pyridin-3-yl)-N-(2-hydroxy-2-methylpropyl)-4-methylbenzenesulfonamide hydrochloride]	5.02	< 5.00
Cc1ncc(-c2cc(-c3cc(S(=O)(=O)NCC4(C)COC4)ccc3C)cnc2N)o1 [Example 69, 3-(6-Amino-5-(2-methyloxazol-5-yl)pyridin-3-yl)-4-methyl-N-((3-methyloxetan-3-yl)methyl)benzenesulfonamide]	5.62	5.36
Cc1cccc(NS(=O)(=O)c2ccc(C)c(-c3cnc(N)c(-c4nc(C)no4)c3)c2)n1 [Example 72, 3-(6-Amino-5-(3-methyl-1,2,4-oxadiazol-5-yl)pyridin-3-yl)-4-methyl-N-(6-methylpyridin-2-yl)benzenesulfonamide]	< 5.00	< 5.00
Cc1ncc(-c2cc(-c3cc(S(N)(=O)=O)ccc3C)cnc2N)s1 [Example 74, 3-(6-Amino-5-(2-methylthiazol-5-yl)pyridin-3-yl)-4-methylbenzenesulfonamide]	5.30	5.66
Cc1ccc(S(=O)(=O)NCCC(C)(C)O)cc1-c1cnc(N)c(-c2nc(CC(F)(F)F)no2)c1 [Example 79, 3-(6-Amino-5-(3-(2,2,2-trifluoroethyl)-1,2,4-oxadiazol-5-yl)pyridin-3-yl)-N-(3-hydroxy-3-methylbutyl)-4-methylbenzenesulfonamide]	5.55	< 5.00
